{
  "source": "ChEMBL document CHEMBL1201862",
  "about": "“PubChem BioAssay data set” (2004)",
  "assay_in_all_cases": "DTP human tumour cell line panel, 48 h",
  "key": {"IGROV-1": {"test_system": "IGROV-1"}, "HL-60": {"test_system": "HL-60"}, "K562": {"test_system": "K562"}, "NCI-H522": {"test_system": "NCI-H522"}, "OVCAR-3": {"test_system": "OVCAR-3"}, "U-251": {"test_system": "U-251"}, "RPMI-8226": {"test_system": "RPMI-8226"}, "A498": {"test_system": "A498"}, "OVCAR-5": {"test_system": "OVCAR-5"}, "DMS-273": {"test_system": "DMS-273"}, "XF498": {"test_system": "XF498"}, "HOP-92": {"test_system": "HOP-92"}, "RXF 631": {"test_system": "RXF 631"}, "ACHN": {"test_system": "ACHN"}, "HOP-62": {"test_system": "HOP-62"}, "HT-29": {"test_system": "HT-29"}, "SNB-75": {"test_system": "SNB-75"}, "SF-268": {"test_system": "SF-268"}, "DLD-1": {"test_system": "DLD-1"}, "OVCAR-4": {"test_system": "OVCAR-4"}, "HCC 2998": {"test_system": "HCC 2998"}, "A549": {"test_system": "A549"}, "M19-MEL": {"test_system": "M19-MEL"}, "SW-620": {"test_system": "SW-620"}, "MOLT-4": {"test_system": "MOLT-4"}, "NCI-H226": {"test_system": "NCI-H226"}, "M14": {"test_system": "M14"}, "SNB-78": {"test_system": "SNB-78"}, "SK-MEL-5": {"test_system": "SK-MEL-5"}, "UACC-62": {"test_system": "UACC-62"}, "CAKI-1": {"test_system": "CAKI-1"}, "HOP-18": {"test_system": "HOP-18"}, "LOX IMVI": {"test_system": "LOX IMVI"}, "SR": {"test_system": "SR"}, "TK-10": {"test_system": "TK-10"}, "NCI-H23": {"test_system": "NCI-H23"}, "HCT-15": {"test_system": "HCT-15"}, "CCRF-CEM": {"test_system": "CCRF-CEM"}, "KM-20L2": {"test_system": "KM-20L2"}, "786-0": {"test_system": "786-0"}, "SF-539": {"test_system": "SF-539"}, "SN12C": {"test_system": "SN12C"}, "SK-MEL-28": {"test_system": "SK-MEL-28"}, "EKVX": {"test_system": "EKVX"}, "COLO 205": {"test_system": "COLO 205"}, "KM12": {"test_system": "KM12"}, "RXF 393": {"test_system": "RXF 393"}, "OVCAR-8": {"test_system": "OVCAR-8"}, "SF-295": {"test_system": "SF-295"}, "UACC-257": {"test_system": "UACC-257"}, "Malme-3M": {"test_system": "Malme-3M"}, "LXFL 529": {"test_system": "LXFL 529"}, "SNB-19": {"test_system": "SNB-19"}, "UO-31": {"test_system": "UO-31"}, "SK-MEL-2": {"test_system": "SK-MEL-2"}},
  "note": "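These data come from cells grown in 96-well plates and exposed to compound for 48 hours at five concentrations. At the GI50, growth is halved.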 Active and inactive are the calls of the source. Rule as the data show it: active = GI50 up to about 1.1 µM and inactive = higher.",
  "data": [
    {"smiles": "Cc1nc2ccccc2nc1NS(=O)(=O)c1ccc(N)cc1", "values": [
      {"measurement": "GI50", "setting": "IGROV-1", "result": "> 100 µM (inactive)"},
      {"measurement": "GI50", "setting": "HL-60", "result": "> 100 µM (inactive)"},
      {"measurement": "GI50", "setting": "K562", "result": "> 100 µM (inactive)"},
      {"measurement": "GI50", "setting": "NCI-H522", "result": "> 100 µM (inactive)"},
      {"measurement": "GI50", "setting": "OVCAR-3", "result": "> 100 µM (inactive)"},
      {"measurement": "GI50", "setting": "U-251", "result": "> 100 µM (inactive)"},
      {"measurement": "GI50", "setting": "RPMI-8226", "result": "> 100 µM (inactive)"},
      {"measurement": "GI50", "setting": "A498", "result": "> 100 µM (inactive)"},
      {"measurement": "GI50", "setting": "OVCAR-5", "result": "> 100 µM (inactive)"},
      {"measurement": "GI50", "setting": "DMS-273", "result": "> 100 µM (inactive)"},
      {"measurement": "GI50", "setting": "XF498", "result": "> 100 µM (inactive)"},
      {"measurement": "GI50", "setting": "HOP-92", "result": "> 100 µM (inactive)"},
      {"measurement": "GI50", "setting": "RXF 631", "result": "> 100 µM (inactive)"},
      {"measurement": "GI50", "setting": "ACHN", "result": "> 100 µM (inactive)"},
      {"measurement": "GI50", "setting": "HOP-62", "result": "> 100 µM (inactive)"},
      {"measurement": "GI50", "setting": "HT-29", "result": "> 100 µM (inactive)"},
      {"measurement": "GI50", "setting": "SNB-75", "result": "50.9 µM (inactive)"},
      {"measurement": "GI50", "setting": "SF-268", "result": "> 100 µM (inactive)"},
      {"measurement": "GI50", "setting": "DLD-1", "result": "> 100 µM (inactive)"},
      {"measurement": "GI50", "setting": "OVCAR-4", "result": "> 100 µM (inactive)"},
      {"measurement": "GI50", "setting": "HCC 2998", "result": "> 100 µM (inactive)"},
      {"measurement": "GI50", "setting": "A549", "result": "> 100 µM (inactive)"},
      {"measurement": "GI50", "setting": "M19-MEL", "result": "> 100 µM (inactive)"},
      {"measurement": "GI50", "setting": "SW-620", "result": "> 100 µM (inactive)"},
      {"measurement": "GI50", "setting": "MOLT-4", "result": "> 100 µM (inactive)"},
      {"measurement": "GI50", "setting": "NCI-H226", "result": "> 100 µM (inactive)"},
      {"measurement": "GI50", "setting": "M14", "result": "> 100 µM (inactive)"},
      {"measurement": "GI50", "setting": "SNB-78", "result": "> 100 µM (inactive)"},
      {"measurement": "GI50", "setting": "SK-MEL-5", "result": "> 100 µM (inactive)"},
      {"measurement": "GI50", "setting": "UACC-62", "result": "> 100 µM (inactive)"},
      {"measurement": "GI50", "setting": "CAKI-1", "result": "> 100 µM (inactive)"},
      {"measurement": "GI50", "setting": "HOP-18", "result": "> 100 µM (inactive)"},
      {"measurement": "GI50", "setting": "LOX IMVI", "result": "> 100 µM (inactive)"},
      {"measurement": "GI50", "setting": "SR", "result": "> 100 µM (inactive)"},
      {"measurement": "GI50", "setting": "TK-10", "result": "> 100 µM (inactive)"},
      {"measurement": "GI50", "setting": "NCI-H23", "result": "> 100 µM (inactive)"},
      {"measurement": "GI50", "setting": "HCT-15", "result": "> 100", "unit": "µM"},
      {"measurement": "GI50", "setting": "CCRF-CEM", "result": "> 100 µM (inactive)"},
      {"measurement": "GI50", "setting": "KM-20L2", "result": "> 100 µM (inactive)"},
      {"measurement": "GI50", "setting": "786-0", "result": "> 100 µM (inactive)"},
      {"measurement": "GI50", "setting": "SF-539", "result": "> 100 µM (inactive)"},
      {"measurement": "GI50", "setting": "SN12C", "result": "> 100 µM (inactive)"},
      {"measurement": "GI50", "setting": "SK-MEL-28", "result": "> 100 µM (inactive)"},
      {"measurement": "GI50", "setting": "EKVX", "result": "> 100 µM (inactive)"},
      {"measurement": "GI50", "setting": "COLO 205", "result": "> 100 µM (inactive)"},
      {"measurement": "GI50", "setting": "KM12", "result": "> 100 µM (inactive)"},
      {"measurement": "GI50", "setting": "RXF 393", "result": "> 100 µM (inactive)"},
      {"measurement": "GI50", "setting": "OVCAR-8", "result": "> 100 µM (inactive)"},
      {"measurement": "GI50", "setting": "SF-295", "result": "> 100 µM (inactive)"},
      {"measurement": "GI50", "setting": "UACC-257", "result": "> 100 µM (inactive)"},
      {"measurement": "GI50", "setting": "Malme-3M", "result": "> 100 µM (inactive)"},
      {"measurement": "GI50", "setting": "LXFL 529", "result": "> 100 µM (inactive)"},
      {"measurement": "GI50", "setting": "SNB-19", "result": "> 100 µM (inactive)"},
      {"measurement": "GI50", "setting": "UO-31", "result": "> 100 µM (inactive)"},
      {"measurement": "GI50", "setting": "SK-MEL-2", "result": "> 100 µM (inactive)"}
    ]}
  ]
}
